Assay results from PubChem BioAssay (NCI).
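Grown in 96-well plates, cells were treated for 48 hours with each compound at five concentrations. Insufficient inhibition: endpoint recorded as highest concentration tested. The concentration for full growth arrest is given as TGI.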

Key:
Assay in all cases: NCI tumour cell line growth inhibition, 48 h
OVCAR-8 ovarian = test system: OVCAR-8 ovarian
M14 melanoma = test system: M14 melanoma
MCF7 breast = test system: MCF7 breast
BT-549 breast = test system: BT-549 breast
IGROV1 ovarian = test system: IGROV1 ovarian
786-0 renal = test system: 786-0 renal
MOLT-4 leukemia = test system: MOLT-4 leukemia
A498 renal = test system: A498 renal
EKVX NSCLC = test system: EKVX NSCLC
CCRF-CEM leukemia = test system: CCRF-CEM leukemia
RPMI-8226 leukemia = test system: RPMI-8226 leukemia
OVCAR-5 ovarian = test system: OVCAR-5 ovarian
KM12 colon = test system: KM12 colon
NCI-H522 lung = test system: NCI-H522 lung
UACC-257 melanoma = test system: UACC-257 melanoma
U251 CNS = test system: U251 CNS
CAKI-1 renal = test system: CAKI-1 renal
MDA-MB-435 = test system: MDA-MB-435
HCC-2998 colon = test system: HCC-2998 colon
TK-10 renal = test system: TK-10 renal
HL-60(TB) leukemia = test system: HL-60(TB) leukemia
NCI-H23 lung = test system: NCI-H23 lung
NCI/ADR-RES ovarian = test system: NCI/ADR-RES ovarian
HOP-92 NSCLC = test system: HOP-92 NSCLC
SK-OV-3 ovarian = test system: SK-OV-3 ovarian
SK-MEL-28 melanoma = test system: SK-MEL-28 melanoma
SF-295 CNS = test system: SF-295 CNS
MALME-3M melanoma = test system: MALME-3M melanoma
RXF 393 renal = test system: RXF 393 renal
COLO 205 colon = test system: COLO 205 colon
SR leukemia = test system: SR leukemia
LOX IMVI melanoma = test system: LOX IMVI melanoma
HCT-116 colon = test system: HCT-116 colon
PC-3 prostate = test system: PC-3 prostate
OVCAR-4 ovarian = test system: OVCAR-4 ovarian
SN12C renal = test system: SN12C renal
K-562 leukemia = test system: K-562 leukemia
ACHN renal = test system: ACHN renal
SW-620 colon = test system: SW-620 colon
SNB-75 CNS = test system: SNB-75 CNS
SNB-19 CNS = test system: SNB-19 CNS
HCT-15 colon = test system: HCT-15 colon
NCI-H226 lung = test system: NCI-H226 lung
SF-539 CNS = test system: SF-539 CNS
A549 NSCLC = test system: A549 NSCLC
T-47D breast = test system: T-47D breast
UACC-62 melanoma = test system: UACC-62 melanoma
MDA-MB-231 breast = test system: MDA-MB-231 breast
HOP-62 NSCLC = test system: HOP-62 NSCLC
SK-MEL-2 melanoma = test system: SK-MEL-2 melanoma
OVCAR-3 ovarian = test system: OVCAR-3 ovarian
NCI-H460 lung = test system: NCI-H460 lung
UO-31 renal = test system: UO-31 renal
HT29 colon = test system: HT29 colon
DU-145 prostate = test system: DU-145 prostate
SF-268 CNS = test system: SF-268 CNS
SK-MEL-5 melanoma = test system: SK-MEL-5 melanoma
HS 578T breast = test system: HS 578T breast
MDA-N = test system: MDA-N
HOP-18 NSCLC = test system: HOP-18 NSCLC
M19-MEL melanoma = test system: M19-MEL melanoma
P388/ADR leukemia = test system: P388/ADR leukemia
LXFL 529 NSCLC = test system: LXFL 529 NSCLC
SN12K1 renal = test system: SN12K1 renal
KM20L2 colon = test system: KM20L2 colon
DMS 114 small cell lung = test system: DMS 114 small cell lung
XF 498 CNS = test system: XF 498 CNS
DLD-1 colon = test system: DLD-1 colon
DMS 273 small cell lung = test system: DMS 273 small cell lung
SNB-78 CNS = test system: SNB-78 CNS

## CC(=O)NC1=CC(=O)c2cc(C)cc(O)c2C1=O
OVCAR-8 ovarian
  TGI: 18.7 µM
M14 melanoma
  TGI: 3.53 µM
MCF7 breast
  TGI: 7.8 µM
BT-549 breast
  TGI: 18.9 µM
IGROV1 ovarian
  TGI: 26.4 µM
786-0 renal
  TGI: 27.3 µM
MOLT-4 leukemia
  TGI: 24.2 µM
A498 renal
  TGI: 27.5 µM
EKVX NSCLC
  TGI: 31.7 µM
CCRF-CEM leukemia
  TGI: 12.9 µM
RPMI-8226 leukemia
  TGI: 12.2 µM
OVCAR-5 ovarian
  TGI: 26.1 µM
KM12 colon
  TGI: 33.4 µM
NCI-H522 lung
  TGI: 20.2 µM
UACC-257 melanoma
  TGI: 4.79 µM
U251 CNS
  TGI: 36.4 µM
CAKI-1 renal
  TGI: 42.9 µM
MDA-MB-435
  TGI: 1.96 µM
HCC-2998 colon
  TGI: 5.69 µM
TK-10 renal
  TGI: 45.9 µM
HL-60(TB) leukemia
  TGI: 5.24 µM
NCI-H23 lung
  TGI: 5.21 µM
NCI/ADR-RES ovarian
  TGI: 23.9 µM
HOP-92 NSCLC
  TGI: 22.7 µM
SK-OV-3 ovarian
  TGI: > 83.5 µM
SK-MEL-28 melanoma
  TGI: 1.54 µM
SF-295 CNS
  TGI: 39.4 µM
MALME-3M melanoma
  TGI: 4.33 µM
RXF 393 renal
  TGI: 26.8 µM
COLO 205 colon
  TGI: 13.3 µM
SR leukemia
  TGI: 37.3 µM
LOX IMVI melanoma
  TGI: 7.74 µM
HCT-116 colon
  TGI: 16.3 µM
PC-3 prostate
  TGI: 40.7 µM
OVCAR-4 ovarian
  TGI: 20.4 µM
SN12C renal
  TGI: 14.2 µM
K-562 leukemia
  TGI: 14.7 µM
ACHN renal
  TGI: 23 µM
SW-620 colon
  TGI: 10.6 µM
SNB-75 CNS
  TGI: 37 µM
SNB-19 CNS
  TGI: > 62.7 µM
HCT-15 colon
  TGI: 13.8 µM
NCI-H226 lung
  TGI: 38.5 µM
SF-539 CNS
  TGI: 14.8 µM
A549 NSCLC
  TGI: 19 µM
T-47D breast
  TGI: 35 µM
UACC-62 melanoma
  TGI: 4.71 µM
MDA-MB-231 breast
  TGI: 24.7 µM
HOP-62 NSCLC
  TGI: 35.2 µM
SK-MEL-2 melanoma
  TGI: 17.9 µM
OVCAR-3 ovarian
  TGI: 8.37 µM
NCI-H460 lung
  TGI: 36.1 µM
UO-31 renal
  TGI: 20 µM
HT29 colon
  TGI: 46.9 µM
DU-145 prostate
  TGI: 14.1 µM
SF-268 CNS
  TGI: 22.6 µM
SK-MEL-5 melanoma
  TGI: 2.65 µM
HS 578T breast
  TGI: > 84.5 µM
MDA-N
  TGI: 3.02 µM

## COC(=O)[C@]12CC=C3O[C@@H]4OC5(CCCCC5)O[C@@H]4[C@H]3C1C(=O)C=CC2=O (some centres not stated)
OVCAR-8 ovarian
  TGI: 44.1 µM
HOP-18 NSCLC
  TGI: 32.6 µM
M14 melanoma
  TGI: 32 µM
MCF7 breast
  TGI: 35.5 µM
M19-MEL melanoma
  TGI: 30.9 µM
BT-549 breast
  TGI: 34.5 µM
IGROV1 ovarian
  TGI: 34.5 µM
P388/ADR leukemia
  TGI: 10.5 µM
LXFL 529 NSCLC
  TGI: 23.8 µM
786-0 renal
  TGI: 30.8 µM
MOLT-4 leukemia
  TGI: 21.4 µM
A498 renal
  TGI: 33.6 µM
EKVX NSCLC
  TGI: 52.1 µM
CCRF-CEM leukemia
  TGI: 14.3 µM
RPMI-8226 leukemia
  TGI: 21.6 µM
SN12K1 renal
  TGI: 31.4 µM
OVCAR-5 ovarian
  TGI: 38.8 µM
KM12 colon
  TGI: 20.7 µM
NCI-H522 lung
  TGI: 15.4 µM
KM20L2 colon
  TGI: 37.5 µM
UACC-257 melanoma
  TGI: 32.5 µM
U251 CNS
  TGI: 36.1 µM
CAKI-1 renal
  TGI: 30.4 µM
HCC-2998 colon
  TGI: 31.4 µM
TK-10 renal
  TGI: 31.4 µM
HL-60(TB) leukemia
  TGI: 25.9 µM
NCI-H23 lung
  TGI: 33.6 µM
NCI/ADR-RES ovarian
  TGI: 38.5 µM
HOP-92 NSCLC
  TGI: 33.1 µM
SK-OV-3 ovarian
  TGI: 48.7 µM
SK-MEL-28 melanoma
  TGI: 34.2 µM
SF-295 CNS
  TGI: 42.2 µM
DMS 114 small cell lung
  TGI: 33.7 µM
MALME-3M melanoma
  TGI: 34.2 µM
RXF 393 renal
  TGI: 25.8 µM
COLO 205 colon
  TGI: 30.4 µM
XF 498 CNS
  TGI: 20 µM
SR leukemia
  TGI: > 76.8 µM
LOX IMVI melanoma
  TGI: 35.2 µM
HCT-116 colon
  TGI: 32.4 µM
DLD-1 colon
  TGI: 29.9 µM
PC-3 prostate
  TGI: 52.3 µM
OVCAR-4 ovarian
  TGI: 31.4 µM
SN12C renal
  TGI: 35.1 µM
K-562 leukemia
  TGI: 65 µM
ACHN renal
  TGI: 32.6 µM
SW-620 colon
  TGI: 32.1 µM
SNB-75 CNS
  TGI: 34.7 µM
SNB-19 CNS
  TGI: 66.2 µM
HCT-15 colon
  TGI: 34.2 µM
NCI-H226 lung
  TGI: 34.5 µM
SF-539 CNS
  TGI: 34.8 µM
A549 NSCLC
  TGI: 55 µM
T-47D breast
  TGI: 42.5 µM
DMS 273 small cell lung
  TGI: 34.3 µM
UACC-62 melanoma
  TGI: 30.2 µM
MDA-MB-231 breast
  TGI: 32.8 µM
HOP-62 NSCLC
  TGI: 37.9 µM
SK-MEL-2 melanoma
  TGI: 48.4 µM
SNB-78 CNS
  TGI: 37.2 µM
OVCAR-3 ovarian
  TGI: 28.7 µM
NCI-H460 lung
  TGI: 45.5 µM
UO-31 renal
  TGI: 30.8 µM
HT29 colon
  TGI: 34.6 µM
DU-145 prostate
  TGI: 47.2 µM
SF-268 CNS
  TGI: 30 µM
SK-MEL-5 melanoma
  TGI: 32.8 µM
HS 578T breast
  TGI: 78.4 µM
MDA-N
  TGI: 33.6 µM

## CN(C)CCOC1(CC2CCCCC2)CCC(C(C)(C)C)CC1 (configuration not stated)
OVCAR-8 ovarian
  TGI: 19.3 µM
M14 melanoma
  TGI: 4.61 µM
MCF7 breast
  TGI: 7.73 µM
BT-549 breast
  TGI: 20.4 µM
IGROV1 ovarian
  TGI: 22.2 µM
786-0 renal
  TGI: 5.91 µM
MOLT-4 leukemia
  TGI: 7.67 µM
A498 renal
  TGI: 12.9 µM
EKVX NSCLC
  TGI: 22 µM
CCRF-CEM leukemia
  TGI: 7.62 µM
RPMI-8226 leukemia
  TGI: 4.9 µM
OVCAR-5 ovarian
  TGI: 17.5 µM
KM12 colon
  TGI: 14.4 µM
NCI-H522 lung
  TGI: 8.49 µM
UACC-257 melanoma
  TGI: 11.8 µM
U251 CNS
  TGI: 13.2 µM
CAKI-1 renal
  TGI: 19.1 µM
MDA-MB-435
  TGI: 13.8 µM
HCC-2998 colon
  TGI: 11.7 µM
TK-10 renal
  TGI: 25.5 µM
HL-60(TB) leukemia
  TGI: 7.35 µM
NCI-H23 lung
  TGI: 21.8 µM
NCI/ADR-RES ovarian
  TGI: 23.8 µM
HOP-92 NSCLC
  TGI: 17.5 µM
SK-OV-3 ovarian
  TGI: 24.7 µM
SK-MEL-28 melanoma
  TGI: 12.3 µM
SF-295 CNS
  TGI: 12 µM
MALME-3M melanoma
  TGI: 6.65 µM
RXF 393 renal
  TGI: 8.96 µM
COLO 205 colon
  TGI: 6.13 µM
SR leukemia
  TGI: 4.57 µM
LOX IMVI melanoma
  TGI: 6.79 µM
HCT-116 colon
  TGI: 14.7 µM
PC-3 prostate
  TGI: 13.2 µM
OVCAR-4 ovarian
  TGI: 19.8 µM
SN12C renal
  TGI: 20.6 µM
K-562 leukemia
  TGI: 5.93 µM
ACHN renal
  TGI: 20 µM
SW-620 colon
  TGI: 12.7 µM
SNB-75 CNS
  TGI: 19.1 µM
SNB-19 CNS
  TGI: 21.9 µM
HCT-15 colon
  TGI: 13.4 µM
NCI-H226 lung
  TGI: 21.2 µM
SF-539 CNS
  TGI: 10.6 µM
A549 NSCLC
  TGI: 17.6 µM
T-47D breast
  TGI: 13.6 µM
UACC-62 melanoma
  TGI: 20.3 µM
MDA-MB-231 breast
  TGI: 13.5 µM
HOP-62 NSCLC
  TGI: 11.2 µM
SK-MEL-2 melanoma
  TGI: 13.7 µM
OVCAR-3 ovarian
  TGI: 18.4 µM
NCI-H460 lung
  TGI: 9.65 µM
UO-31 renal
  TGI: 15.6 µM
HT29 colon
  TGI: 7.02 µM
DU-145 prostate
  TGI: 19.6 µM
SF-268 CNS
  TGI: 25.4 µM
SK-MEL-5 melanoma
  TGI: 4.8 µM
HS 578T breast
  TGI: 23.4 µM
MDA-N
  TGI: 13.1 µM
